Experimental data reported in paper PMC11597725, “New Asymmetric Gemini Triazole Surfactants with a Polar Triethylene Glycol Fragment: Synthesis and Physico-Chemical Properties” (Molecules, 2024).

Target: T1, bovine serum albumin (BSA) (Bos taurus, UniProt P02769)
T1 construct: gene ALB; native serum protein, BSA powder dissolved in buffer; mature form expected
Test: tryptophan fluorescence quenching, double-log plot
Assay type: binding
Details: 25 mM Tris-HCl pH 7.4, 298.15 K, BSA 10 μM, surfactant 0-700 μM
Source text: tryptophan fluorescence quenching, double-log plot on bovine serum albumin (BSA)

T1 sequence (P02769 25-607): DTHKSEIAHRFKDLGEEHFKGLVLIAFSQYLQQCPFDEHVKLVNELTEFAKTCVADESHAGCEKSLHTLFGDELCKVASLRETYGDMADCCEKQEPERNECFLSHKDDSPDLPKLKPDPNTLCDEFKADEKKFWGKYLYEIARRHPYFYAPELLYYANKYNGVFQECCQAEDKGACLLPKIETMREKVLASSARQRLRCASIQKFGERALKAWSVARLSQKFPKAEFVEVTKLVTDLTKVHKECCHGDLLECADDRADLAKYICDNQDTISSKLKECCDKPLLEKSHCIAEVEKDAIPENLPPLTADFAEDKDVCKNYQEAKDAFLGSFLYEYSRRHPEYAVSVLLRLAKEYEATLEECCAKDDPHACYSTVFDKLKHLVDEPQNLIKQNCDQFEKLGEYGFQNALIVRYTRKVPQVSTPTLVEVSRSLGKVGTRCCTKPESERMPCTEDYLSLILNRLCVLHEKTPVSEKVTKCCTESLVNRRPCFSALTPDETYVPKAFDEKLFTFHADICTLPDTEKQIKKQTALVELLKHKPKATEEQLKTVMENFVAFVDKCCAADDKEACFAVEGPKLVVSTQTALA

| Structure (SMILES) | Kb |
| --- | --- |
| COCCOCCOCCOCc1cn(CCCn2cc[n+](CCC[n+]3ccn(CCCn4cc(COCCOCCOCCOC)nn4)c3)c2)nn1 [14d, 3,3′-(propane-1,3-diyl)bis(1-(3-(4-(2,5,8,11-tetraoxadodecyl)-1H-1,2,3-triazol-1-yl)propyl)-1H-imidazol-3-ium) dibromide] | 34800 M⁻¹ |
| CCCCn1cc[n+](CCCn2cc[n+](CCCn3cc(COCCOCCOCCOC)nn3)c2)c1 [14a, 1-(3-(4-(2,5,8,11-tetraoxadodecyl)-1H-1,2,3-triazol-1-yl)propyl)-3-(3-(1-butyl-1H-imidazol-3-ium-3-yl)propyl)-1H-imidazol-3-ium dibromide] | 730 M⁻¹ |
| CCCCCCCCCCCCCCn1cc[n+](CCC[n+]2ccn(CCCn3cc(COCCOCCOCCOC)nn3)c2)c1 [14c, 1-(3-(4-(2,5,8,11-tetraoxadodecyl)-1H-1,2,3-triazol-1-yl)propyl)-3-(3-(1-tetradecyl-1H-imidazol-3-ium-3-yl)propyl)-1H-imidazol-3-ium dibromide] | 44900 M⁻¹ |
| CCCCCCCCn1cc[n+](CCCn2cc[n+](CCCn3cc(COCCOCCOCCOC)nn3)c2)c1 [14b, 1-(3-(4-(2,5,8,11-tetraoxadodecyl)-1H-1,2,3-triazol-1-yl)propyl)-3-(3-(1-octyl-1H-imidazol-3-ium-3-yl)propyl)-1H-imidazol-3-ium dibromide] | 20700 M⁻¹ |

Results, then the compound that gave them:

| Kb | Structure (SMILES) |
| --- | --- |
| 10400 M⁻¹ | CCCCCCCCn1cc[n+](CCC[n+]2ccn(CCOCCn3cc(COCCOCCOCCOC)nn3)c2)c1 [15b, 1-(2-(2-(4-(2,5,8,11-tetraoxadodecyl)-1H-1,2,3-triazol-1-yl)ethoxy)ethyl)-3-(3-(1-octyl-1H-imidazol-3-ium-3-yl)propyl)-1H-imidazol-3-ium dibromide] |
| 790 M⁻¹ | CCCCn1cc[n+](CCC[n+]2ccn(CCOCCn3cc(COCCOCCOCCOC)nn3)c2)c1 [15a, 1-(2-(2-(4-(2,5,8,11-tetraoxadodecyl)-1H-1,2,3-triazol-1-yl)ethoxy)ethyl)-3-(3-(1-butyl-1H-imidazol-3-ium-3-yl)propyl)-1H-imidazol-3-ium dibromide] |
| 10000 M⁻¹ | COCCOCCOCCOCc1cn(CCOCCn2cc[n+](CCC[n+]3ccn(CCOCCn4cc(COCCOCCOCCOC)nn4)c3)c2)nn1 [15d, 3,3′-(propane-1,3-diyl)bis(1-(2-(2-(4-(2,5,8,11-tetraoxadodecyl)-1H-1,2,3-triazol-1-yl)ethoxy)ethyl)-1H-imidazol-3-ium) dibromide] |
| 10900 M⁻¹ | CCCCCCCCCCCCCCn1cc[n+](CCC[n+]2ccn(CCOCCn3cc(COCCOCCOCCOC)nn3)c2)c1 [15c, 1-(2-(2-(4-(2,5,8,11-tetraoxadodecyl)-1H-1,2,3-triazol-1-yl)ethoxy)ethyl)-3-(3-(1-tetradecyl-1H-imidazol-3-ium-3-yl)propyl)-1H-imidazol-3-ium dibromide] |
